{
  "source": "patent US20080226653A1",
  "about": "“Inhibition of Platelet Aggregation” (THE UNIVERSITY OF MANITOBA, priority 2006, published 2008)",
  "origin": "cited, not measured here",
  "details": "clinical trials (Patrono et al., 1993)",
  "data": [
    {"smiles": "CC(=O)Oc1ccccc1C(=O)O", "note": "[aspirin, Aspirin]", "values": [
      {"measurement": "efficacy in preventing chronic complications in diabetic patients", "value": "only limited efficacy"}
    ]}
  ]
}
